Where two headings read alike, the source gives them in different places.
Experiments:
hPDE2A = biological target: T1, hPDE2A (Homo sapiens, UniProt O00408); assay: In vitro assay PDE2A (SPA, 3H-cGMP); format: biochemical; conditions: for Emax: read-out: hPDE2A Emax
T1 construct: made in house; host or cells: Sf9 insect cells (baculovirus)
Procedure: Human recombinant PDE2A (hPDE2A) was expressed in Sf9 cells using a recombinant rPDE10A baculovirus construct. Cells were harvested after 48 h of infection and the hPDE2A protein was purified by metal chelate chromatography on Ni-sepharose 6FF. Tested compounds were dissolved and diluted in 100% DMSO to a concentration 100 fold of the final concentration in the assay. Compound dilutions (0.4 μl) were added in 384 well plates to 20 μl of incubation buffer (50 mM Tris pH 7.8, 8.3 mM MgCl2, 1.7 mM EGTA). 10 μl of hPDE2A enzyme in incubation buffer was added and the reaction was started by addition of 10 μl substrate to a final concentration of 10 μM cGMP and 0.01 μCi ^3H-cGMP. The reaction was incubated for 45 minutes at room temperature. […] After sedimentation of the beads during 30 minutes the radioactivity was measured in a Perkin Elmer Topcount scintillation counter and results were expressed as cpm. For blanc values the enzyme was omitted from the reaction and replaced by incubation buffer. Control values were obtained by addition of a final concentration of 1% DMSO instead of compound.

hPDE3B = assay: In vitro assay PDE3 (SPA, 3H-cAMP); format: biochemical, human; design: hPDE3B Emax: unit not given here; conditions: for hPDE3B pIC50: 0.4 μM cAMP substrate
hPDE10A2 = hPDE10A2 (Homo sapiens, UniProt Q9Y233); assay: biochemical; conditions: for IC50: 60 nM cAMP substrate, read-out: hPDE10A2 pIC50 (converted); for Emax: read-out: hPDE10A2 Emax
Procedure: Rat recombinant PDE10A (rPDE10A2) was expressed in Sf9 cells using a recombinant rPDE10A baculovirus construct. Cells were harvested after 48 h of infection and the rPDE10A protein was purified by metal chelate chromatography on Ni-sepharose 6FF. Tested compounds were dissolved and diluted in 100% DMSO to a concentration 100 fold of the final concentration in the assay. Human recombinant PDE10A […] was expressed in Sf9 cells using a recombinant hPDE10A baculovirus that was made and amplified in house. Cells were harvested after 72 h of infection and the hPDE10A protein was purified by metal chelate chromatography on Ni-sepharose. Compound dilutions (0.4 μl) were added in 384 well plates to 20 μl of incubation buffer (50 mM Tris pH 7.8, 8.3 mM MgCl2, 1.7 mM EGTA). […] of rPDE10A or hPDE10A enzyme in incubation buffer was added and the reaction was started by addition of 10 μl substrate to a final concentration of 60 nM cAMP and 0.008 μCi ^3H-cAMP. The reaction was incubated for 60 minutes at room temperature. […] After sedimentation of the beads during 30 minutes the radioactivity was measured in a Perkin Elmer Topcount scintillation counter and results were expressed as cpm. For blanc values the enzyme was omitted from the reaction and replaced by incubation buffer. Control values were obtained by addition of a final concentration of 1% DMSO instead of compound.

PDE2A = biological target: T2, PDE2A (Rattus norvegicus, UniProt Q01062); assay: PDE2 occupancy by ex-vivo autoradiography with [3H]B-17a; format: in vivo; conditions: rat, read-out: PDE2 occupancy at 10 mg/kg
T2 construct: from tissue; host or cells: rat brain striatal sections (ex vivo)
T2 sequence (Q01062 1-928): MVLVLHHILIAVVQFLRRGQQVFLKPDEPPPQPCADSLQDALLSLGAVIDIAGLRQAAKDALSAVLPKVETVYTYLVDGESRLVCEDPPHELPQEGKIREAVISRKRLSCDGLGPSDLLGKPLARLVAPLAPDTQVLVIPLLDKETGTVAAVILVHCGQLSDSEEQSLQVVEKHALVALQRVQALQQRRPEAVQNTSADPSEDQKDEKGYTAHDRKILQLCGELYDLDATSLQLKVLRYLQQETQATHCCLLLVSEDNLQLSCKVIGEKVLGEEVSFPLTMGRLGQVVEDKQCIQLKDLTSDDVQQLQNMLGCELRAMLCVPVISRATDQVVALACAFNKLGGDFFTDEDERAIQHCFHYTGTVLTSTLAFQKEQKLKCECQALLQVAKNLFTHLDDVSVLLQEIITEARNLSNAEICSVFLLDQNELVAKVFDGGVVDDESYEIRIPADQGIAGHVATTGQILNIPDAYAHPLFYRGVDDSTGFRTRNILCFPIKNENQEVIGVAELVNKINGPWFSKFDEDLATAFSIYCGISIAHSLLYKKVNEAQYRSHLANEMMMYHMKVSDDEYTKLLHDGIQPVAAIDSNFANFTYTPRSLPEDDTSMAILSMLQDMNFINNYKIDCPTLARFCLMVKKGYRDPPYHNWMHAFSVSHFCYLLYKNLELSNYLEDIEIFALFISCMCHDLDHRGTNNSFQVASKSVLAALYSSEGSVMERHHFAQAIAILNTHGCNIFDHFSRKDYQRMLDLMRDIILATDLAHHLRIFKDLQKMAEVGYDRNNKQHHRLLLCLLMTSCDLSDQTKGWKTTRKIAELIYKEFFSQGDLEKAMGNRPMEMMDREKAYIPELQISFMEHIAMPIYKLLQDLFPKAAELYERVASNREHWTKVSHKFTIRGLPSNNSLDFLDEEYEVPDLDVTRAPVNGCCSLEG
Procedure: PDE2 Occupancy by Test Compounds Methods
Brains were immediately removed from the skull and rapidly frozen in dry-ice cooled 2-methylbutane (−40° C.).
After thawing, sections were dried under a cold stream of air and incubated for one minute with 30 nM [^3H]B-17a in Tris-HCl (50 mM, pH7.4) containing 0.3% BSA. Brain sections from drug-treated and vehicle-treated animals were incubated in parallel. […] After incubation, the excess of [^3H]B-17a was washed off in ice-cold buffer 2 times 10 minutes, followed by a quick dip in distilled water. The sections were then dried under a stream of cold air.
Brain sections were loaded in a β-imager (Biospace, Paris) for 4 h and radioactivity emerging from delineated brain area was quantified using the Beta vision program (Biospace, Paris). Specific binding was determined as the difference between total binding in the striatum and non-specific binding in the cerebellum. Percentage receptor occupancy of the drug administered to the animal corresponded to 100% minus the percentage receptor labeled in the treated animal. For the determination of ED50-values, the percentage of receptor occupancy was plotted against dose and the sigmoidal log dose-effect curve of best fit was calculated by non-linear regression analysis, using the GraphPad Prism program.

[1] = route SC (subcutaneous), 10 mg/kg, male Wistar rats, striatum, percentage occupancy

hPDE10A2, sequence (Q9Y233 267-1055): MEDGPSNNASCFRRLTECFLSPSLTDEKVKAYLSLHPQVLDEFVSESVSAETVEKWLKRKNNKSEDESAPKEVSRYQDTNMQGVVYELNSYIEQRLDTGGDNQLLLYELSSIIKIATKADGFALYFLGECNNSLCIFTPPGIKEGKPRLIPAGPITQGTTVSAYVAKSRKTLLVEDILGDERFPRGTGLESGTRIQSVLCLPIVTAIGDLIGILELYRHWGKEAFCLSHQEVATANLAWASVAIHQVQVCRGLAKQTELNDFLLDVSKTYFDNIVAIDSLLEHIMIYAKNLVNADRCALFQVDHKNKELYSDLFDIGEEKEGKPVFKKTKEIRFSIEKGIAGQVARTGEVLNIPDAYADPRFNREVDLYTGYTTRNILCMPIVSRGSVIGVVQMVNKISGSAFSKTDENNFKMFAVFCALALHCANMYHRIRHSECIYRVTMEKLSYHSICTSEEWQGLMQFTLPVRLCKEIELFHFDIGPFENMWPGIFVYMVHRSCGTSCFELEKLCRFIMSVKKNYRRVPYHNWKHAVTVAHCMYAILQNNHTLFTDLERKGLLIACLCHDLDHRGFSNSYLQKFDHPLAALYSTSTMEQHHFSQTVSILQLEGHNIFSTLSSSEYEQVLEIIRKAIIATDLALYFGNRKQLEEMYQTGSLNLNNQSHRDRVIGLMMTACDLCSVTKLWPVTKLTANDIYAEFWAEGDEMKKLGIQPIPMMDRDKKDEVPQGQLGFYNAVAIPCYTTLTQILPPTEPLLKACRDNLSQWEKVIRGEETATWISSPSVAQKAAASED
T1 sequence (O00408 whole entry): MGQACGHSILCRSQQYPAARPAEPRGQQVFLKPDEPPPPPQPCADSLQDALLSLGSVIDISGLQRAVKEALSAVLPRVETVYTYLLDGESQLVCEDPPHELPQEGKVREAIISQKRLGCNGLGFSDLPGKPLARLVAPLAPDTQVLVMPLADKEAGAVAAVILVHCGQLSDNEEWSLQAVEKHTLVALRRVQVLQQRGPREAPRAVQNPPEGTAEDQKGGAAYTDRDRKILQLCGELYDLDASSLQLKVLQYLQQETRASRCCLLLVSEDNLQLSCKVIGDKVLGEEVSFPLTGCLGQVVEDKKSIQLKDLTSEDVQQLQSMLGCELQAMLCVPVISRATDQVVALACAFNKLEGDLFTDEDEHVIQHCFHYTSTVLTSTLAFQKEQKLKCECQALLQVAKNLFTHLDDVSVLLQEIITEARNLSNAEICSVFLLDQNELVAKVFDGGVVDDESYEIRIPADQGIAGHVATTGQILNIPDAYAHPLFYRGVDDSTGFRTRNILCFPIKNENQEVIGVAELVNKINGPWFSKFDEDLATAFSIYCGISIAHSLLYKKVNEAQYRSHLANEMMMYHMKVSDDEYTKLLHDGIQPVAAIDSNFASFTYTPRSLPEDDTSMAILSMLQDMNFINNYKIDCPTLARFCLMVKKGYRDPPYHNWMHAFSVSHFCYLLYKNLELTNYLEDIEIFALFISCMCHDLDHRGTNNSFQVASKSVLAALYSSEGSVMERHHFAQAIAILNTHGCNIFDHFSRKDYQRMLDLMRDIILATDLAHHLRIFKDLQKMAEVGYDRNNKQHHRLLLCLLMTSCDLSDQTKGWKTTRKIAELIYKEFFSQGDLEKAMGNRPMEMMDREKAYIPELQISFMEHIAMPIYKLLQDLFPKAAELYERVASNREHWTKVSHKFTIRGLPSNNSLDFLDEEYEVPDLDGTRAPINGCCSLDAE

Row | Compound | IC50 (hPDE2A) [nM] | Emax (hPDE2A) [%] | hPDE3B Emax (hPDE3B) | hPDE3B pIC50 (hPDE3B) | IC50 (hPDE10A2) [nM] | Emax (hPDE10A2) [%] | receptor occupancy at 10 mg/kg (PDE2A; [1]) [%] | receptor occupancy at 10 mg/kg (PDE2A; po) [%]
1 | COc1cnc(N2CC[C@@H](C)[C@H](c3cc(C(F)F)nc4ncnn34)C2)c2ccccc12 [Compound 8] | 10.7 | 101 | 73 | 5.22 | 1020 | 97 | – | –
2 | CC(C)Oc1cccnc1N1CC[C@@H](C)[C@H](c2cc(C(F)F)nc3ncnn23)C1.Cl [Compound 31] | 257 | 81 | 27 | <5 | 1290 | 91 | – | –
3 | C[C@@H]1CCN(c2ccc(C(F)(F)F)cn2)C[C@H]1c1cc(C(F)F)nc2ncnn12 [Compound 38] | 170 | 99 | 49 | <5 | 759 | 92 | – | –
4 | C[C@@H]1CCN(c2cc(N3CCOCC3)ccn2)C[C@H]1c1cc(C(F)F)nc2ncnn12 [Compound 27] | 107 | 100 | 48 | 5.07 | 2630 | 80 | 0 | –
5 | COc1ccnc(N2CC[C@@H](C)[C@H](c3cc(C(F)F)nc4ncnn34)C2)c1OC.Cl [Compound 33] | 166 | 89 | 40 | <5 | 1700 | 82 | – | –
6 | C[C@@H]1CCN(c2nccc3ccc(F)cc23)C[C@H]1c1cc(C(F)F)nc2ncnn12 [Compound 14] | 17 | 101 | 62 | 5.29 | 389 | 98 | – | –
7 | C[C@@H]1CCN(c2ccccn2)C[C@H]1c1cc(C(F)F)nc2ncnn12.Cl [Compound 32] | 170 | 86 | 38 | <5 | 1660 | 87 | – | 18
8 | C[C@@H]1CCN(c2ccc(C#N)cn2)C[C@H]1c1cc(C(F)F)nc2ncnn12 [Compound 35] | 162 | 99 | 31 | <5 | 1380 | 85 | – | 0
9 | Cc1cccc2ccnc(N3CC[C@@H](C)C(c4cc(C(F)F)nc5ncnn45)C3)c12 (some centres unmarked) [Compound 41] | 309 | 99 | 65 | 5.14 | 4680 | 76 | -8 | –
10 | C[C@@H]1CCN(c2ncnc3ccccc23)C[C@H]1c1cc(C(F)F)nc2ncnn12 [Compound 12] | 14.5 | 100 | 67 | 5.25 | 646 | 96 | – | 1
11 | C[C@@H]1CCN(c2ccc(Cl)cn2)C[C@H]1c1cc(C(F)F)nc2ncnn12 [Compound 25] | 83.2 | 101 | 45 | <5 | 692 | 92 | – | –
12 | C[C@@H]1CCN(c2cccc(C#N)n2)C[C@H]1c1cc(C(F)F)nc2ncnn12 [Compound 24] | 79.4 | 100 | 68 | 5.17 | 575 | 94 | – | –
13 | C[C@@H]1CCN(c2ncc(C(F)(F)F)cc2Br)C[C@H]1c1cc(C(F)F)nc2ncnn12 [Compound 19] | 30.2 | 100 | 38 | <5 | 417 | 96 | – | –
14 | Cc1cccc(N2CC[C@@H](C)C(c3cc(C(F)F)nc4ncnn34)C2)n1 (some centres unmarked) [Compound 39] | 145 | 99 | 58 | 5.13 | 1290 | 87 | – | –
15 | CCCCOc1ccnc(N2CC[C@@H](C)[C@H](c3cc(C(F)F)nc4ncnn34)C2)c1 [Compound 11] | 13.8 | 99 | 99 | 6.02 | 355 | 97 | – | –
16 | FC(F)c1cc([C@H]2CC[C@H]3CC[C@@H]2N3c2c(Br)ccc3ccncc23)n2ncnc2n1 [Compound 5] | 6.76 | 100 | 76 | 5.27 | 427 | 97 | – | –
17 | CC(C)Oc1cccnc1N1CC[C@H](C)[C@@H](c2cc(C(F)F)nc3ncnn23)C1.Cl [Compound 34] | 2400 | 30 | 2 | <5 | > 10000 | 33 | – | –
18 | Cc1cc([C@@H]2CN(c3nccc4ccccc34)CC[C@H]2C)n2ncnc2n1 [Compound 15] | 17.4 | 100 | 69 | 5.21 | 162 | 98 | – | –
19 | C[C@@H]1CCN(c2ccc(F)cn2)C[C@H]1c1cc(C(F)F)nc2ncnn12 [Compound 36] | 245 | 100 | 56 | 5.01 | 1510 | 84 | – | –
20 | C[C@@H]1CCN(c2ncccc2Cl)C[C@H]1c1cc(C(F)F)nc2ncnn12 [Compound 28] | 110 | 99 | 50 | 4.96 | 692 | 90 | – | –
21 | C[C@@H]1CCN(c2cccc(C(F)(F)F)n2)C[C@H]1c1cc(C(F)F)nc2ncnn12 [Compound 26] | 91.2 | 99 | 80 | 5.43 | 457 | 95 | – | –

— patent US11053248B2, “[1,2,4]triazolo[1,5-a]pyrimidine compounds as PDE2 inhibitors” (Janssen Pharmaceutica NV, priority 2016, dated 2021)
